The record followed here is patent US10669276B2, “Fused pyrimidine derivatives” (Hoffmann-La Roche Inc., priority 2016, dated 2020).

This assay concerns the target γ-secretase (Homo sapiens (Human), UniProt P49768). The assay is described as follows: Cellular γ-secretase assay (Aβ42 secretion, AlphaLisa). It is filed as cell-based. Particulars: inhibition of Aβ42 secretion; human neuroglioma H4 cells overexpressing human APP695 Swedish double mutation; 24 hr compound incubation. On the procedure: Human neuroglioma H4 cells overexpressing human APP695 with the Swedish double mutation (K595N/M596L) were plated at 30,000 cells/well/100 μl in 96-well plates in IMDM media containing 10% FCS, 0.2 mg/l Hygromycin B and incubated at 37° C., 5% CO2.
3-4 hr post plating, compounds are a diluted in media and 50 μl is added as […] concentrate to achieve the final concentration. Compound incubation is performed for 24 hr. Final doses typically range from 4 μM down to 0.0013 μM in half-log steps resulting in an eight point dose response curve. Appropriate controls using vehicle only and reference compound were applied to this assay. The final concentration of Me2SO was 0.4%.
After incubation at 37° C., 5% CO2, the supernatant was subjected to quantification of secreted Aβ42 by the means of an AlphaLisa assay kit (Human Amyloid beta 1-42 Kit: Cat # AL203C, Perkin Elmer). 20 μl of the cell culture supernatant was transferred to an assay plate. Then 10 μl of a mixture of the AlphaLisa coupled capture antibody and the biotinylated detection antibody was added and incubated for 3 hours at room temperature while softly shaking the assay plate. After a further addition of 20 μl of the Donor beads the assay plate was incubated for 30 min at room temperature and constant shaking without exposure to direct light. The assay plate was then read on a Paradigm AlphaLisa Reader using the build-in program with excitation at 680 nm and emission at […]. The measured signals were then used to calculate IC50 values for inhibition of Aβ42 secretion by nonlinear regression fit analysis using XLfit 5.3 software (IDBS).

Structures are written as SMILES.

For the compound `CNc1nc(Nc2ccc(-n3cnc(C)c3)c(F)c2)nc2c1[C@H](C)CN2c1ccc(F)cc1` (single isomer, unassigned) [Example 46p, (S)- or (R)—N2-(3-Fluoro-4-(4-methyl-1H-imidazol-1-yl)phenyl)-7-(4-fluorophenyl)-N4,5-dimethyl-6,7-dihydro-5H-pyrrolo[2,3-d]pyrimidine-2,4-diamine], a half-maximal effect (EC50) was put at 5 nM. That is a single-digit nanomolar value.

For the compound `CNc1nc(Nc2ccc(-n3cnc(C)c3)c(F)c2)nc2c1[C@@H](C)CN2c1ccc(F)cc1` (single isomer, unassigned) [Example 46q, (R)— or (S)—N2-(3-Fluoro-4-(4-methyl-1H-imidazol-1-yl)phenyl)-7-(4-fluorophenyl)-N4,5-dimethyl-6,7-dihydro-5H-pyrrolo[2,3-d]pyrimidine-2,4-diamine], the EC50 – broadly, the concentration giving half of the maximal effect – worked out at 7 nM.

Compound `CNc1nc(Nc2ccc(-n3cnc(C)n3)c(OC)c2)nc2c1C(C)(C)CN2c1ccc(F)cc1` [Example 1, 7-(4-Fluorophenyl)-N2-(3-methoxy-4-(3-methyl-1H-1,2,4-triazol-1-yl)phenyl)-N4,5,5-trimethyl-6,7-dihydro-5H-pyrrolo[2,3-d]pyrimidine-2,4-diamine] had an EC50 of 5 nM. The EC50 values of the last two compounds are within 1.5-fold of each other.

The compound `CNc1nc(Nc2ccc(-n3cnc(C)n3)c(OC(F)F)c2)nc2c1C(C)(C)CN2c1ccc(F)cc1` [Example 2, N2-(3-(Difluoromethoxy)-4-(3-methyl-1H-1,2,4-triazol-1-yl)phenyl)-7-(4-fluorophenyl)-N4,5,5-trimethyl-6,7-dihydro-5H-pyrrolo[2,3-d]pyrimidine-2,4-diamine] yielded an EC50 of 8 nM.

`CNc1nc(Nc2ccc(-n3cnc(C)n3)c(F)c2)nc2c1C(C)(C)CN2c1ccc(F)cc1` [Example 3, N2-(3-Fluoro-4-(3-methyl-1H-1,2,4-triazol-1-yl)phenyl)-7-(4-fluorophenyl)-N4,5,5-trimethyl-6,7-dihydro-5H-pyrrolo[2,3-d]pyrimidine-2,4-diamine] had an EC50 of 16 nM.

`CNc1nc(Nc2ccc(-n3cnc(Cl)c3)c(OC)c2)nc2c1C(C)(C)CN2c1ccc(F)cc1` [Example 4, N2-(4-(4-Chloro-1H-imidazol-1-yl)-3-methoxyphenyl)-7-(4-fluorophenyl)-N4,5,5-trimethyl-6,7-dihydro-5H-pyrrolo[2,3-d]pyrimidine-2,4-diamine] had an EC50 of 7 nM.

For `CNc1nc(Nc2ccc(-n3ncnc3C)c(F)c2)nc2c1C(C)(C)CN2c1ccc(F)cc1` [Example 5, N2-(3-Fluoro-4-(5-methyl-1H-1,2,4-triazol-1-yl)phenyl)-7-(4-fluorophenyl)-N4,5,5-trimethyl-6,7-dihydro-5H-pyrrolo[2,3-d]pyrimidine-2,4-diamine], the 50% effective concentration (EC50) was determined as 22 nM.

The compound `CNc1nc(Nc2cnc(-n3cnc(Cl)c3)c(OC)c2)nc2c1C(C)(C)CN2c1ccc(F)cc1` [Example 6, N2-(6-(4-Chloro-1H-imidazol-1-yl)-5-methoxypyridin-3-yl)-7-(4-fluorophenyl)-N4,5,5-trimethyl-6,7-dihydro-5H-pyrrolo[2,3-d]pyrimidine-2,4-diamine] displayed an EC50 of 9 nM. Against the preceding compound, the EC50 is about 2.4-fold lower.

Consider `CNc1nc(Nc2cnc(-n3cnc(C)c3)c(OC)c2)nc2c1C(C)(C)CN2c1ccc(F)cc1` [Example 7, 7-(4-Fluorophenyl)-N2-(5-methoxy-6-(4-methyl-1H-imidazol-1-yl)pyridin-3-yl)-N4,5,5-trimethyl-6,7-dihydro-5H-pyrrolo[2,3-d]pyrimidine-2,4-diamine], for which the EC50 turned out to be 5 nM.

The compound `CNc1nc(Nc2ccc(-n3cnc(C)n3)c(OC)c2)nc2c1C(C)(C)CN2c1ccc(F)c(F)c1` [Example 8, 7-(3,4-Difluorophenyl)-N2-(3-methoxy-4-(3-methyl-1H-1,2,4-triazol-1-yl)phenyl)-N4,5,5-trimethyl-6,7-dihydro-5H-pyrrolo[2,3-d]pyrimidine-2,4-diamine] registered an EC50 of 5 nM.
